The results in this text go back to patent US4215110A, “Method of treating hypertension” (Merck & Co., Inc., priority 1978, dated 1980).

The assay relates to spontaneously hypertensive (SH) rats. The assay can be described thus: antihypertensive activity test in spontaneously hypertensive (SH) rats. The assay is classed as in vivo, rat. To be noted: administered intraperitoneally. How it is done:
The present tripeptides have antihypertensive activity. This antihypertensive activity was determined using a test procedure which involved administration of representative compounds to spontaneously hypertensive (SH) rats.

With `NC(=O)[C@@H]1CCCN1C(=O)[C@H](Cc1c[nH]cn1)NC(=O)[C@@H]1CCC(=O)N1` [TRH, L-pyroglutamyl-L-histidyl-L-proline-amide], the antihypertensive activity result is listed as “significant antihypertensive activity”.
